The target in one assay is T1, B-RAFV600E (Homo sapiens, UniProt P15056, V600E).
T1 construct: purchased Millipore, USA 14-557
The experiment in a line: B-RAFV600E radiometric assay. To be noted: read-out: Kinase assay B-Raf. The class given is biochemical. The procedure:
Compound inhibition for B-RAFV600E was determined through radiometric assay using a BRAF enzyme (Catalog No. 14-557, Millipore, USA) and MEK-K97M protein as a substrate (Catalog No. 0785-0000-1, ProqQinase GmbH, Germany). The B-RAF kinase catalyzes the phosphorylation of MEK protein in the presence of gamma ATP (PLC-101, Jonaki, CCMB, Hyderabad), cold ATP and Mg^2+.
The phosphorylated protein product is detected by the scintillation counter Topcount® machine (Perkin Elmer). This assay has been adapted from the method previously reported by Yeh et al. (2007, Clinical Cancer Research; 13, 1576-1583). The assay measures the B-RAF mediated transfer of 32P from the gamma position of radiolabeled ATP onto MEK1-KD. The labeled phosphorylated protein was measured in MicroBeta® Trilux Counter (Perkin Elmer). The assay was validated with reference compounds RAF1 Kinase Inhibitor I and ZM 336372 inhibitor which are reported to be inhibitors of B-RAF enzyme (Lackey, 2000, Medicinal Chemistry Letters; 10(3):223-226; Kupcho, “Fluorescent High throughput kinase cascade assays for inhibitor characterization, RAF-MEK-ERK pathway, www.invitrogen.com, and Hall-Jackson, 1999, Chemical Biology; 6(8):559-568). B-RAF enzyme mixture (13 μL) was added to compound wells containing 2 μL of the NCE in 1% DMSO and incubated for 45 min at rt on a shaking incubator at 300 rpm. MEK-K97M (0.5 μg) and cold ATP to a final concentration of 5 μM, and hot ATP 0.1 μCi in a volume of 10 μL was added to each well and incubated for 2 h at rt on a shaking incubator at 300 rpm. The reaction was stopped by addition of […] (13 μL) containing ATP (1 mM: 495 μL 1N HCl and 5 μL 100 mM ATP). Aliquot (30 μL) was then transferred to the center of a 2 cm×2 cm P81 paper. P81 paper was washed 8×5 min each with ortho-phosphoric acid (0.5%). P81 papers are washed twice with acetone for […] Assay squares were allowed to dry for […] at 37° C. P81 paper are transferred to Optiplate™ (Perkin Elmer) and counted in a Topcount® counter (Perkin Elmer). Data was plotted against the compound concentration to generate dose-response curves and IC50 values were determined using a sigmoidal dose response curve fit GraphPad Prism® v5 software.

In the next assay the target is T2, mTOR kinase (Homo sapiens, UniProt P42345).
T2 construct: purchased Millipore, US
T2 sequence (P42345 1362-2549 limits assumed): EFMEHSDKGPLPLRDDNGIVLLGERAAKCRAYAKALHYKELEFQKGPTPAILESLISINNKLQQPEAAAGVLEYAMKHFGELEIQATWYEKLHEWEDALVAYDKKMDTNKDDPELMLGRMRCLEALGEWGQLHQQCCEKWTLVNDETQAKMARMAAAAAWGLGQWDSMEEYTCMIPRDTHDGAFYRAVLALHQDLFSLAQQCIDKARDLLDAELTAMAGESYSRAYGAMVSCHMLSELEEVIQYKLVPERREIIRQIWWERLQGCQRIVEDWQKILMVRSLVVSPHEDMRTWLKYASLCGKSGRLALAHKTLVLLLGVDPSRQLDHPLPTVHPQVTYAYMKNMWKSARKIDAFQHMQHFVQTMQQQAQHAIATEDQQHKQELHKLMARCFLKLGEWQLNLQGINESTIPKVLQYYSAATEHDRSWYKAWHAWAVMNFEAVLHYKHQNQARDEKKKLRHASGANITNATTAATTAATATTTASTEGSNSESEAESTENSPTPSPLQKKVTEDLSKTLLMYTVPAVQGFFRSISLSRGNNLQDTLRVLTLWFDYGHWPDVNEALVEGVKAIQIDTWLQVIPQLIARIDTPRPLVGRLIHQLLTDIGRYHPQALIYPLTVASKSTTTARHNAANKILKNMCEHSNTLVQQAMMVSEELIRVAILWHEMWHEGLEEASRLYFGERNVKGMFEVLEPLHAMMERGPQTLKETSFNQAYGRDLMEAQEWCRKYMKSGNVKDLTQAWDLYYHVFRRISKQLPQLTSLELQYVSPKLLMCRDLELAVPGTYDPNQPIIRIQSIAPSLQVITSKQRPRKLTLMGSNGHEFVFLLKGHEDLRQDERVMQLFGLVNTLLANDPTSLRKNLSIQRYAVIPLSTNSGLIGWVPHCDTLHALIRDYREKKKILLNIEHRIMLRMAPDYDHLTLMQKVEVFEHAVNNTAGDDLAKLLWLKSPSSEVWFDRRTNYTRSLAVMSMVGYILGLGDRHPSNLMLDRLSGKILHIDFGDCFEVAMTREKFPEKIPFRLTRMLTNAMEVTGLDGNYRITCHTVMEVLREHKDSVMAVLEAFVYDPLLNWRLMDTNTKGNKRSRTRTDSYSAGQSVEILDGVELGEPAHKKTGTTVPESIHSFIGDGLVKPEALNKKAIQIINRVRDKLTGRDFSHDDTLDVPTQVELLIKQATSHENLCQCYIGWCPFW
Description: mTOR kinase TR-FRET assay. It counts as biochemical. The procedure: Compound inhibition for mTOR kinase was determined by homogeneous TR-FRET assay using ULight-p70 S6K (Thr 389) peptide as substrate. mTOR enzyme (Millipore, US; […]) was used in the assay. The reaction buffer was HEPES (50 mM, pH 7.5), EGTA (1 mM), and MnCl2 (3 mM). Test compound was pre-incubated with mTOR for 30 min followed by 50 nM ULight-p70 S6K (Thr 389) peptide along with ATP (20 μM).
After incubating the reaction mixture for 30 min, Eu-labeled anti-phospho-substrate antibody (1 nM, Perkin Elmer, USA) was added. Fluorescence emission at […] was measured upon excitation at 340 nm. The compound dilution was carried out in 100% DMSO followed by a buffer dilution. The kinase reaction was incubated for 1 h at rt followed by the addition of substrate-ATP mix and incubated at rt for 1 h. The reaction was terminated by the addition of EDTA followed by the addition of detection mix. IC50 values were determined using a sigmoidal dose response curve fit, GraphPad Prism® v5 software.

pIC50: −log10 of the molar value.

T1 sequence (P15056 416-766 V600E limits assumed): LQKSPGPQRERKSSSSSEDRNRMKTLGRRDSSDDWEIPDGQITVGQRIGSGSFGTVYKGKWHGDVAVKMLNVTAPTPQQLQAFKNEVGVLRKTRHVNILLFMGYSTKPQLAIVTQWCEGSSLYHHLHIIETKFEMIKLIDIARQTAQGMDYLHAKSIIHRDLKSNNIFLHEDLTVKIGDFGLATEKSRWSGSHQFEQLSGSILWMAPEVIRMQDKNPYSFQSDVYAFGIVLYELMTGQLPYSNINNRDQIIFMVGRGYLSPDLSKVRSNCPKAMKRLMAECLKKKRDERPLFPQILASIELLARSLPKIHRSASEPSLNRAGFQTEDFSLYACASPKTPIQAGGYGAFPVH

On to `CCCS(=O)(=O)Nc1cccc(-c2cc(OC)c3nc(-n4c(CO)nc5ccccc54)nc(N4CCOCC4)c3c2)c1F` [Example 10, N-(2-fluoro-3-(2-(2-(hydroxymethyl)-1H-benzo[d]imidazol-1-yl)-8-methoxy-4-morpholinoquinazolin-6-yl)phenyl)propane-1-sulfonamide], for which the pIC50 at B-RAFV600E and against mTOR kinase was 6.00 to 7.00 throughout.
With `COc1cc(-c2cccc(NS(=O)(=O)CCCF)c2F)cc2c(N3CCOC[C@H]3C)nc(-c3cnc4[nH]ccc4c3)nc12` [Example 44, (R)-3-fluoro-N-(2-fluoro-3-(8-methoxy-4-(3-methylmorpholino)-2-(1H-pyrrolo[2,3-b]pyridin-5-yl)quinazolin-6-yl)phenyl)propane-1-sulfonamide], the pIC50 on B-RAFV600E and against mTOR kinase was 6.00 to 7.00 each time.
Take `C[C@@H]1COCCN1c1nc(-c2cnc(N)c(F)c2)nc2c(OCCF)cc(-c3cccc(NS(=O)(=O)CCCF)c3F)cc12` [Example 142, (R)-N-(3-(2-(6-amino-5-fluoropyridin-3-yl)-8-(2-fluoroethoxy)-4-(3-methylmorpholino)quinazolin-6-yl)-2-fluorophenyl)-3-fluoropropane-1-sulfonamide]: the pIC50 at B-RAFV600E was 7.00 to 9.00; against mTOR kinase, 6.00 to 7.00.
Consider `CCCNc1ccc(-c2nc(N3CCOCC3)c3cc(-c4cccc(NS(=O)(=O)CCCF)c4F)cc(OC)c3n2)cn1` [Example 49, 3-fluoro-N-(2-fluoro-3-(8-methoxy-4-morpholino-2-(6-(propylamino)pyridin-3-yl)quinazolin-6-yl)phenyl)propane-1-sulfonamide], for which the results for the pIC50 on B-RAFV600E and against mTOR kinase were 7.00 to 9.00 and 6.00 to 7.00, respectively.
For `Nc1ccc(-c2nc(N3CCOCC3)c3cc(-c4cccc(NS(=O)(=O)CCCF)c4F)cc(OCC(=O)O)c3n2)cn1` [Example 59, 2-((2-(6-aminopyridin-3-yl)-6-(2-fluoro-3-(3-fluoropropylsulfonamido)phenyl)-4-morpholino-quinazolin-8-yl)oxy)acetic acid 2,2,2-trifluoroacetate] the same measures were 6.00 to 7.00 and 7.00 to 9.00.
The matching figures for `C[C@@H]1COCCN1c1nc(-c2cnc(N)nc2)nc2c(OCCF)cc(-c3cccc(NS(=O)(=O)CCCF)c3F)cc12` [Example 141, (R)-N-(3-(2-(2-aminopyrimidin-5-yl)-8-(2-fluoroethoxy)-4-(3-methylmorpholino)quinazolin-6-yl)-2-fluorophenyl)-3-fluoropropane-1-sulfonamide]: 7.00 to 9.00 and 6.00 to 7.00.
For the compound `COc1cc(-c2cccc(NS(=O)(=O)CCC(F)(F)F)c2F)cc2c(N3CCOCC3)nc(-c3ccc(N)nc3)nc12` [Example 31, N-(3-(2-(6-aminopyridin-3-yl)-8-methoxy-4-morpholinoquinazolin-6-yl)-2-fluorophenyl)-3,3,3-trifluoropropane-1-sulfonamide], the pIC50 at B-RAFV600E and against mTOR kinase was 6.00 to 7.00 in each case.
Regarding `CCOc1cc(-c2cccc(NS(=O)(=O)CCCF)c2F)cc2c(N3CCOC[C@@H]3C)nc(-c3cnc(N)nc3)nc12` [Example 66], the pIC50 on B-RAFV600E was 7.00 to 9.00; at mTOR kinase, 6.00 to 7.00.
As to `COc1cc(-c2c(Cl)ccc(NS(=O)(=O)CCCF)c2F)cc2c(N3CCOCC3)nc(-c3ccc(N)nc3)nc12` [Example 85, N-(3-(2-(6-aminopyridin-3-yl)-8-methoxy-4-morpholinoquinazolin-6-yl)-4-chloro-2-fluorophenyl)-3-fluoropropane-1-sulfonamide], the pIC50 is 7.00 to 9.00 at B-RAFV600E and 6.00 to 7.00 on mTOR kinase.
With `COc1cc(-c2cccc(NS(=O)(=O)c3ccc(F)cc3F)c2F)cc2c(N3CCOCC3)nc(-c3cnc(N)nc3)nc12` [Example 24, N-(3-(2-(2-aminopyrimidin-5-yl)-8-methoxy-4-morpholinoquinazolin-6-yl)-2-fluorophenyl)-2,4-difluorobenzenesulfonamide], the pIC50 on B-RAFV600E and at mTOR kinase was 6.00 to 7.00 throughout.
Turning to `CCOc1cc(-c2cccc(NS(=O)(=O)CCCF)c2F)cc2c(N3CCOC[C@H]3C)nc(-c3cnc4[nH]ccc4c3)nc12` [Example 61, (R)-N-(3-(8-ethoxy-4-(3-methylmorphollno)-2-(1H-pyrrolo[2,3-b]pyridin-5-yl)quinazolin-6-yl)-2-fluorophenyl)-3-fluoropropane-1-sulfonamide], the pIC50 was 7.00 to 9.00 at B-RAFV600E and 6.00 to 7.00 at mTOR kinase.
Regarding `CCc1cc(-c2cccc(NS(=O)(=O)CCCF)c2F)cc2c(N3CCOC[C@H]3C)nc(-c3cnc(N)nc3)nc12` [Example 119, (R)-N-(3-(2-(2-aminopyrimidin-5-yl)-8-ethyl-4-(3-methylmorpholino)quinazolin-6-yl)-2-fluorophenyl)-3-fluoropropane-1-sulfonamide], the results for the pIC50 at B-RAFV600E and against mTOR kinase were 7.00 to 9.00 and 6.00 to 7.00, respectively.
The matching figures for `CCCCS(=O)(=O)Nc1cccc(-c2cc(OC)c3nc(-c4cnc(N)nc4)nc(N4CCOCC4)c3c2)c1F` [Example 23, N-(3-(2-(2-aminopyrimidin-5-yl)-8-methoxy-4-morpholinoquinazolin-6-yl)-2-fluorophenyl)butane-1-sulfonamide]: 6.00 to 7.00 and 6.00 to 7.00.
As for `COc1cc(-c2c(F)ccc(NS(=O)(=O)CCCF)c2F)cc2c(N3CCOCC3)nc(-c3cnc4[nH]ccc4c3)nc12` [Example 83], the pIC50 is 7.00 to 9.00 at B-RAFV600E and 6.00 to 7.00 against mTOR kinase.
On to `COc1cc(-c2cccc(NS(=O)(=O)CCCF)c2F)cc2c(N3CCOCC3)nc(-c3ccc(NC(C)=O)nc3)nc12` [Example 124, N-(5-(6-(2-fluoro-3-(3-fluoropropylsulfonamido)phenyl)-8-methoxy-4-morpholinoquinazolin-2-yl)pyridin-2-yl)acetamide], for which the pIC50 at B-RAFV600E is 7.00 to 9.00; against mTOR kinase, 6.00 to 7.00.
On to `CCOc1cc(-c2cccc(NS(=O)(=O)CCCF)c2F)cc2c(N3CCOC[C@H]3C)nc(-c3cnc(NC)nc3)nc12` [Example 138, (R)-N-(3-(8-ethoxy-2-(2-(methylamino)pyrimidin-5-yl)-4-(3-methylmorpholino)quinazolin-6-yl)-2-fluorophenyl)-3-fluoropropane-1-sulfonamide], for which the pIC50 on B-RAFV600E was 7.00 to 9.00; at mTOR kinase, 6.00 to 7.00.
On to `CCCS(=O)(=O)Nc1cccc(-c2cc(OCCO)c3nc(-c4ccc(N)nc4)nc(N4CCOCC4)c3c2)c1F` [Example 4, N-(3-(2-(6-aminopyridin-3-yl)-8-(2-hydroxyethoxy)-4-morpholinoquinazolin-6-yl)-2-fluorophenyl)propane-1-sulfonamide], for which the pIC50 at B-RAFV600E and against mTOR kinase was 6.00 to 7.00 each time.
Turning to `C[C@@H]1COCCN1c1nc(-c2ccc(N)nc2)nc2c(N3CCOCC3)cc(-c3cccc(NS(=O)(=O)CCCF)c3F)cc12` [Example 72, (R)-N-(3-(2-(6-aminopyridin-3-yl)-4-(3-methylmorpholino)-8-morpholinoquinazolin-6-yl)-2-fluorophenyl)-3-fluoropropane-1-sulfonamide], the pIC50 at B-RAFV600E and against mTOR kinase was 7.00 to 9.00 each time.
Regarding `COc1cc(-c2cccc(NS(=O)(=O)CCCF)c2F)cc2c(N3CCOCC3)nc(-c3cnc(N)nc3C)nc12` [Example 35, N-(3-(2-(2-amino-4-methylpyrimidin-5-yl)-8-methoxy-4-morpholinoquinazolin-6-yl)-2-fluorophenyl)-3-fluoropropane-1-sulfonamide], the pIC50 at B-RAFV600E is 7.00 to 9.00; against mTOR kinase, 6.00 to 7.00.
For `COc1cc(-c2cccc(NS(=O)(=O)CCCF)c2F)cc2c(N3CCOCC3)nc(-c3ccc(NS(C)(=O)=O)cc3)nc12` [Example 126, 3-f1uoro-N-(2-fluoro-3-(8-methoxy-2-(4-(methylsulfonamido)phenyl)-4-morpholinoquinazolin-6-yl)phenyl)propane-1-sulfonamide] the same measures were 6.00 to 7.00 and 6.00 to 7.00.

The values are drawn from US9499495B2, “Quinazolines and azaquinazolines as dual inhibitors of RAS/RAF/MEK/ERK and PI3K/AKT/PTEN/mTOR pathways” (Asana Biosciences, LLC, priority 2013, dated 2016).
